{"source": "patent EP4566614A1", "about": "“DRY EYE REMEDY CONTAINING DNA OLIGONUCLEOTIDE […] BINDING TO IFN-y” (TAGCyx Biotechnologies Inc., priority 2022, dated 2024)", "biological_target": "T1, IFN-y (Homo sapiens, UniProt P01579)", "T1 sequence (P01579 24-166)": "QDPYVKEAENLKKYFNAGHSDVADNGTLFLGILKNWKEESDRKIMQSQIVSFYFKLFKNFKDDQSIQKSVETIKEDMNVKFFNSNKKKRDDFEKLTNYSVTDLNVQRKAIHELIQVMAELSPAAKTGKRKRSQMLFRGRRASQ", "test": "Binding of PEG-modified form to IFN-y by SPR (Surface Plasmon Resonance)", "details": "PEG (40000) on base X", "source_text": "With the base of X produced in Example 2, Aptamer 3 (1 eq) having a primary amine side chain and commercially available NHS-PEG (40000) (1.5 eq) were mixed in a phosphate buffer at pH 7 to 8 and the mixture was stirred for 1 day at room temperature. The reaction solution was concentrated and the resulting modified form was purified by reversed phase HPLC to obtain a PEG-modified form of Aptamer 3."}
{"substance": "PEG-modified form of Aptamer 3: Aptamer 3 having a primary amine side chain at X reacted with NHS-PEG (40000) (CCCGCCCGGGTCCGCGAAGCGGTAGGTNTGGGCTAGGCNGCTGGCGGGCGCGNAGCG; DNA aptamer, amine side-chain residue X conjugated to 40 kDa PEG, further chemistry not given here)", "values": [{"measurement": "ability to bind to IFN-y", "result": "retained its ability to bind to IFN-y"}, {"measurement": "ability to bind to IFN-y", "setting": "listed as PEG-modified form of a DNA aptamer having the sequence of SEQ ID NO: 3", "result": "capable of binding to IFN-γ"}]}
